Values after ≈ are worked out from the molar mass of the structure shown. Active and inactive are the calls of the source. The rule behind the calls is not given here.
Columns and labels:
[1] = Cytotoxicity against human PHA-stimulated T cells assessed as cell viability at 30 ug/ml after 36 hrs by MTT assay relative to control; settings: read-out: Activity
[2] = cells; settings: Homo sapiens, T-cell, 36 h, read-out: Activity
Description: Cytotoxicity against human PHA-stimulated T cells assessed as cell viability at 15 ug/ml after 36 hrs by MTT assay relative to control

[3] = test system: Jurkat; assay: cells; settings: Homo sapiens, 36 h, read-out: Activity
Description: Induction of apoptosis in human Jurkat T cells overexpressing Neo assessed as cell viability at 7.5 ug/ml after 36 hrs by MTT assay

[4] = Cytotoxicity against human PHA-stimulated T cells after 36 hrs by MTT assay; settings: T-cell
[5] = Cytotoxicity against human PHA-stimulated T cells assessed as cell viability at 60 ug/ml after 36 hrs by MTT assay relative to control; settings: read-out: Activity
[6] = Cytotoxicity against human normal peripheral T cells after 36 hrs by MTT assay; settings: T-cell
[7] = test system: Jurkat; assay: Cytotoxicity against human Jurkat T cells assessed as cell viability at 60 ug/ml after 36 hrs by MTT assay relative to control; settings: read-out: Activity
[8] = test system: Jurkat; assay: Cytotoxicity against human Jurkat T cells assessed as cell viability at 30 ug/ml after 36 hrs by MTT assay relative to control; settings: read-out: Activity
[9] = test system: Jurkat; assay: Induction of apoptosis in human Jurkat T cells overexpressing Bcl2 assessed as cell viability at 30 ug/ml after 36 hrs by MTT assay; settings: read-out: Activity
[10] = test system: Jurkat; assay: Cytotoxicity against human Jurkat T cells after 36 hrs by MTT assay
[11] = test system: Jurkat; assay: Induction of apoptosis in human Jurkat T cells overexpressing Neo assessed as cell viability at 30 ug/ml after 36 hrs by MTT assay; settings: read-out: Activity
[12] = test system: Jurkat; assay: cells; settings: Homo sapiens, 36 h, read-out: Activity; remark: listed apart in the source
Description: Induction of apoptosis in human Jurkat T cells overexpressing Bcl2 assessed as cell viability at 15 ug/ml after 36 hrs by MTT assay

[13] = test system: Jurkat; assay: cells; settings: Homo sapiens, 36 h, read-out: Activity; remark: listed apart in the source
Description: Cytotoxicity against human Jurkat T cells assessed as cell viability at 15 ug/ml after 36 hrs by MTT assay relative to control

[14] = Cytotoxicity against human normal peripheral T cells assessed as cell viability at 60 ug/ml after 36 hrs by MTT assay relative to control
[15] = test system: Jurkat; assay: cells; settings: Homo sapiens, 36 h, read-out: Activity; remark: listed apart in the source
Description: Induction of apoptosis in human Jurkat T cells overexpressing Neo assessed as cell viability at 15 ug/ml after 36 hrs by MTT assay

[16] = test system: Jurkat; assay: cells; settings: Homo sapiens, 36 h, read-out: Activity; remark: listed apart in the source
Description: Induction of apoptosis in human Jurkat T cells overexpressing Bcl2 assessed as cell viability at 7.5 ug/ml after 36 hrs by MTT assay

[17] = test system: Jurkat; assay: Induction of apoptosis in human Jurkat T cells overexpressing Neo after 36 hrs by flow cytometry; assay type: functional, cell-based
[18] = test system: Jurkat; assay: Induction of cell cycle arrest in human Jurkat T cells overexpressing Bcl2 assessed as G2/M phase cells after 36 hrs by flow cytometry (reference value: 2.4%); assay type: functional
[19] = test system: Jurkat; assay: Induction of apoptosis in human Jurkat T cells overexpressing Bcl2 after 36 hrs by flow cytometry; assay type: functional, cell-based
[20] = test system: Jurkat; assay: Induction of apoptosis in human Jurkat T cells overexpressing Bcl2 assessed as cellular protrusions after 36 hrs by light microscopy; assay type: functional, cell-based
[21] = test system: Jurkat; assay: Induction of cell cycle arrest in human Jurkat T cells overexpressing Neo assessed as G2/M phase cells after 36 hrs by flow cytometry (reference value: 4.7%); assay type: functional
[22] = test system: Jurkat; assay: Induction of microtubule damage in human Jurkat T cells overexpressing Neo after 36 hrs by immunostaining method; assay type: cell-based
[23] = test system: Jurkat; assay: Induction of microtubule damage in human Jurkat T cells overexpressing Bcl2 after 36 hrs by immunostaining method; assay type: cell-based
[24] = test system: Jurkat; assay: Induction of apoptosis in human Jurkat T cells overexpressing Neo assessed as cellular protrusions after 36 hrs by light microscopy; assay type: functional, cell-based

| Compound | Activity [17] | Activity [18] [%] | Activity [19] | Activity [20] | Activity [21] [%] | Activity [22] | Activity [23] | Activity [24] | also measured |
| --- | --- | --- | --- | --- | --- | --- | --- | --- | --- |
| CCOC(C)(C)/C=C1/C=C(C(=O)O)C(O)CO1 (configuration not stated) [ARUNCIN B] | – | – | – | – | – | – | – | – | viability at 30 µg/mL [1]: 68.5%; viability at 15 µg/mL [2]: 85.9%; viability at 7.5 µg/mL [3]: 82%; IC50 [4]: 49 µg/mL (≈ 202 µM); viability at 60 µg/mL [5]: 25%; IC50 [6]: > 60 µg/mL; viability at 60 µg/mL [7]: 24.5%; viability at 30 µg/mL [8]: 36.1%; viability at 30 µg/mL [9]: 61.2%; IC50 [10]: 22 µg/mL (≈ 90.8 µM); viability at 30 µg/mL [11]: 44.9%; viability at 15 µg/mL [12]: 71.5%; viability at 15 µg/mL [13]: 67.7%; viability at 36 h, 60 ug/ml [14]: 63.8%; viability at 15 µg/mL [15]: 57.4%; viability at 7.5 µg/mL [16]: 81.5% |
| O=c1c(-c2ccc(O)cc2)coc2cc(O)cc(O)c12 [GENISTEIN] | Active | 6.7 | inactive | inactive | 35 | inactive | inactive | inactive | – |
| COC(=O)Nc1nc2cc(C(=O)c3cccs3)ccc2[nH]1 [NOCODAZOLE] | Active | 5.6 | inactive | Active | 40.3 | Active | Active | Active | – |

From ChEMBL document CHEMBL2203108, “Induction of microtubule-damage, mitotic arrest, Bcl-2 phosphorylation, Bak activation, and mitochondria-dependent caspase cascade is involved in human Jurkat T-cell apoptosis by aruncin B from Aruncus dioicus var. kamtschaticus” (Bioorg Med Chem Lett, 2012)
